From patent publication US4932991A, “Thiopyridine-N-oxides, thiopyridines, and thiopyrimidines as urease inhibitors” (Tennessee Valley Authority, priority 1988, dated 1990)
Entries after “also recorded” stand apart in the source; their conditions may differ.

System: soil urease
Experiment: Urea hydrolysis in bands of urea in soil (banded soil system urease inhibition test)
Assay type: biochemical
Details: for % inhibition, 3 days (as measured by percent urea unhydrolyzed) / % inhibition, 6 days (as measured by percent urea unhydrolyzed): Hastings silt loam soil, 25° C., inhibitor 41 mg/band with urea 410 mg/band (10% of urea wt/wt), two replicates; for % inhibition, 3 days (as measured by percent urea unhydrolyzed): 3 days incubation; for % inhibition, 6 days (as measured by percent urea unhydrolyzed): 6 days incubation; for urease inhibition effectiveness in soil (in words): banded soil system, three- and six-day tests, compared with PPDA
Description: Test compounds in Example I, infra, were evaluated in soil systems by an alternative procedure in which powdered mixtures of urea and test compounds were applied in narrow bands in the soil rather than being mixed throughout the soil. The banded configuration is not only applicable to banded applications but also results in concentration gradients of urea, urea hydrolysis products, test compounds, and test compound decomposition products similar to those in the immediate vicinity of urea granules containing test compounds. Another advantage of the banded configuration compared with mixing throughout the soil is that slightly soluble test compounds can be easily band applied, whereas it is difficult to achieve a known degree of mixing of a small quantity of slightly soluble test compound with soil. The banded configuration also enables testing for urease inhibition under realistic soil conditions prior to the development of techniques for cogranulating a wide range of test compounds with urea.
Specifics of the procedure for evaluating test compounds in Example I were as follows. Urease-active soil (Hastings silt loam) was moistened to a moisture content of 20% (dry weight basis) and preincubated at room temperature for two days. Plexiglass containers (6×6×6 cm) were one-half filled with soil and packed to a bulk density of 1.1 g/cm^3. Urea or urea plus inhibitor (thoroughly mixed) was distributed in a narrow band 6 cm long and about 0.5 cm wide on the soil surface. The containers then were filled with soil, again packing to a bulk density of 1.1 g/cm^3. The containers were incubated at 25° C. for the desired reaction period, after which the containers were frozen to about -5° C. to halt urea hydrolysis. Immediately prior to extracting the remaining urea from the soil, said soil was allowed to thaw. Soil from each container was thoroughly mixed, and a 10-g sample was extracted with 100 ml of 2M KCl containing phenylmercuric acetate to prevent urea hydrolysis during handling [L. A. Douglass, J. M. Bremner, Soil Sci. Soc. Am. Proc. 34, 859-862 (1970a)]. Urea in the extracts was determined with an automated version of the colorimetric procedure [L. A. Douglass, J. M. Bremner, Anal. Letters 3, 79-87 (1970b)].
Urease-active soil (Hastings silt loam) was moistened to a moisture content of 20% and preincubated at room temperature for two days. Plexiglass containers (6×6×6 cm) were one-half filled with soil and packed to a bulk density of 1.1 g/cm^3. Urea or urea plus inhibitor (thoroughly mixed) was distributed in a narrow band some 6 cm long and about 0.5 cm wide on the surface of the soil. The containers then were filled with soil and again packed to a bulk density of 1.1 g/cm^3. The containers were incubated at 25° C. for the desired reaction period.
The soil from each container was thoroughly mixed, and 10-g sample was extracted with 100 ml of 2M KCl containing 5 ppm phenylmercuric acetate to prevent urea hydrolysis during handling [L. A. Douglass, J. M. Bremner, Soil Sci. Soc. Am. Proc.34, 859-862 (1970); L. A. Douglass, J. M. Bremner, Anal. Letters 3, 79-87 (1970b)]. The urea in the extracts was determined colorimetrically as a measure of the unhydrolyzed urea.

Structure (SMILES) | % inhibition, 3 days (as measured by percent urea unhydrolyzed) (Test Series II) | % inhibition, 6 days (as measured by percent urea unhydrolyzed) (Test Series II) | urease inhibition effectiveness in soil (in words) | % inhibition, 3 days (as measured by percent urea unhydrolyzed) (Test Series I) | % inhibition, 6 days (as measured by percent urea unhydrolyzed) (Test Series I)
Sc1ncccn1 [MPM, 2-Mercaptopyrimidine] | 72.8% | 44.6% | excellent urease inhibitors | – | –
Oc1cccnc1S [MPOL, 2-Mercapto-3-pyridinol] | 40.1% | 0% | significantly lower inhibition | – | –
[O-][n+]1ccccc1 [PNO, Pyridine-N-Oxide] | 11.3% | 0% | significantly lower inhibition | – | –
c1ccc(-c2ccccn2)nc1 [DP, 2,2'-Dipyridyl] | – | – | – | 12.0% | 0.2%
O=[N+]([O-])c1ccc(SSc2ccc([N+](=O)[O-])cn2)nc1 [DTNP, 2,2-Dithio-5-nitropyridine] | – | – | – | 8.6% | 0.5%
[O-][n+]1ccccc1S [MPNO, 2-Mercaptopyridine-N-Oxide] | 76.8% | 32.2% | excellent urease inhibition characteristics | – | –
c1ccc(SSc2ccccn2)nc1 [AT, Aldrithiol] | – | – | possesses even the smallest urease activity | 42.9% | 0.7%
Sc1ccccn1 [MP, 2-Mercaptopyridine] | 80.2% | 37.8% | excellent urease inhibitors | – | –
NP(N)(=O)Oc1ccccc1 [PPDA, Phenyl phosphorodiamidate] | 92.1% | 54.2% | – | 95.6% | 59.6%
[O-][n+]1ccccc1SSc1cccc[n+]1[O-] [DTPNO, 2,2-Dithiobis-pyridine-N-oxide] | 92.6% | 38.9% | as effective an inhibitor as PPDA; also recorded: excellent urease inhibition characteristics | 92.2% | 46.4%
